Results taken from PubChem BioAssay (NCI).
Several values for one entry are separate records, joined by “and”; a condition that tells them apart may be missing. Equal values may be shown once.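 Five concentrations, 48 hours, 96-well plates. GI50 is the concentration that inhibits growth by half. TGI: total growth inhibition.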

Tests used:
Test in all cases: DTP human tumour cell line panel, 48 h
A549 NSCLC = system: A549 NSCLC
ACHN renal = system: ACHN renal
COLO 205 colon = system: COLO 205 colon
EKVX NSCLC = system: EKVX NSCLC
HCT-15 colon = system: HCT-15 colon
HOP-62 NSCLC = system: HOP-62 NSCLC
NCI-H226 lung = system: NCI-H226 lung
SF-295 CNS = system: SF-295 CNS
SW-620 colon = system: SW-620 colon
UACC-62 melanoma = system: UACC-62 melanoma

Row | SMILES | TGI (A549 NSCLC) | TGI (ACHN renal) | TGI (COLO 205 colon) | TGI (EKVX NSCLC) | TGI (HCT-15 colon) [µM] | TGI (HOP-62 NSCLC) | TGI (NCI-H226 lung) | TGI (SF-295 CNS) | TGI (SW-620 colon) [µM] | TGI (UACC-62 melanoma) | GI50 (A549 NSCLC) | GI50 (ACHN renal) [µM] | GI50 (COLO 205 colon) | GI50 (EKVX NSCLC) | GI50 (HCT-15 colon) | GI50 (HOP-62 NSCLC) [µM] | GI50 (NCI-H226 lung) | GI50 (SF-295 CNS) [µM] | GI50 (SW-620 colon) | GI50 (UACC-62 melanoma) [µM]
1 | CCOc1ccccc1NC(=O)CCc1nc(=S)[nH][nH]1 | > 100 µM | > 100 µM | > 100 µM | > 100 µM | > 100 | > 100 µM | > 100 µM | > 100 µM | > 100 | > 100 µM | – | – | – | – | – | – | – | – | – | –
2 | O=C1CCC(O)=C1O | > 100 µM | > 100 µM | > 100 µM | > 100 µM | > 100 | > 100 µM | > 100 µM | > 100 µM | > 100 | > 100 µM | – | – | – | – | – | – | – | – | – | –
3 | COc1cc2nc(-c3ccc(C(F)(F)F)cc3)cc(OCCCN3CCCCC3)c2cc1OC | 19.4 µM | 14.4 µM | 1.94 µM | 14.6 µM | 10.1 | 13.6 µM | 3.51 µM | 2.04 µM | 13.3 | 6.29 µM | 0.722 µM | 1.2 | 0.406 µM | 0.803 µM | 0.399 µM | 0.947 | 0.37 µM | 0.53 | 2.91 µM | 1.82
4 | O=C(O)CSc1ncccc1[N+](=O)[O-] | > 100 µM | > 100 µM | > 100 µM | > 100 µM | > 100 | > 100 µM | > 100 µM | > 100 µM | > 100 | > 100 µM | – | – | – | – | – | – | – | – | – | –
5 | C[C@]12CC[C@@H]3c4ccc(O)cc4C(O)C[C@H]3[C@@H]1CCC2=O (stereo partly drawn) | > 100 µM | > 100 µM | > 100 µM | > 100 µM | > 100 | > 100 µM | > 100 µM | > 100 µM | > 100 | > 100 µM | > 100 µM | > 100 | > 100 µM | 48.8 µM | > 100 µM | > 100 | > 100 µM | > 100 | > 100 µM | > 100
6 | CCOC(=O)c1cc(/C=C/C(C)=C/C(=O)OC)n(C)c1C | > 100 µM | > 100 µM | > 100 µM | > 100 µM | > 100 | > 100 µM | > 100 µM | > 100 µM | > 100 | > 100 µM | – | – | – | – | – | – | – | – | – | –
7 | Oc1ccccc1-c1nc2c3ccccc3c3ccccc3c2[nH]1 | 17.9 µM | 15.6 µM | 22.7 µM | 20.6 µM | 17.9 | 15 µM | 20.9 µM | 22.2 µM | 22.4 | 12.4 µM | 6.08 µM | 4.26 | 10.8 µM | 4.33 µM | 5.31 µM | 3.93 | 7.85 µM | 10.4 | 10.6 µM | 3.1
8 | CC[C@@]1(O)C(=O)OCc2c1cc1n(c2=O)Cc2cc3cc(N)ccc3nc2-1 | 2.24 µM and 1.26 µM | 0.108 µM and 0.013 µM | 2.86 µM and 1.26 µM | 9.06 µM and 44 µM | – | 0.0157 µM and < 0.0151 µM | 0.111 µM and 0.108 µM | 0.0717 µM and 0.055 µM | 5.06 | 0.0393 µM and < 0.021 µM | 0.0373 µM and 0.0155 µM | – | 0.0618 µM and 0.102 µM | 0.304 µM and 0.348 µM | 0.214 µM and 0.102 µM | 0.00135 | 0.00742 µM and 0.0143 µM | 0.00207 | 0.0113 µM and < 0.031 µM | 0.00212
9 | CC(=O)OC1[C@H]2c3cc4c(cc3CN3CCC(=C[C@@H]1O)C23)OCO4 (stereo partly drawn) | > 100 µM | > 100 µM | > 100 µM | > 100 µM | > 100 | > 100 µM | > 100 µM | > 100 µM | > 100 | > 100 µM | – | – | – | – | – | – | – | – | – | –
10 | Fc1cccc(Cl)c1/C=N\N=C1c2ccccc2-c2ccccc21 | > 100 µM | > 100 µM | > 100 µM | > 100 µM | > 100 | > 100 µM | > 100 µM | > 100 µM | > 100 | > 100 µM | – | – | – | – | – | – | – | – | – | –
